{"source": "patent US7803930B2", "about": "“Antisense modulation of apolipoprotein B-expression” (Isis Pharmaceuticals, Inc., priority 2002, dated 2010)", "format_in_all_cases": "in vivo, mouse", "key": {"[1]": {"test": "High fat fed mice (Example 51): intact oligonucleotide in liver tissue by capillary gel electrophoresis", "conditions": "50 mg/kg i.p. twice weekly", "experimental": "In a further embodiment of the invention, the inhibition of apolipoprotein B mRNA in mice was compared to liver oligonucleotide concentration, total cholesterol, LDL-cholesterol and HDL-cholesterol. Male C57Bl/6 mice receiving a high fat diet (60% fat) were evaluated over the course of 6 weeks for the effects of treatment with twice weekly intraperitoneal injections of 50 mg/kg ISIS 147764 (SEQ ID NO: 109) or 50 mg/kg of the control oligonucleotide ISIS 141923 (SEQ ID NO: 858). Control animals received saline treatment. Animals were sacrificed after 2 days, 1, 2, 4 and 6 weeks of treatment. Each treatment group at each time point consisted of 8 mice.\nTarget expression in liver was measured by real-time PCR as described by other examples herein and is expressed as percent inhibition relative to saline treated mice. Total, LDL- and HDL-cholesterol levels were measured by routine clinical analysis using an Olympus Clinical Analyzer (Olympus America Inc., Melville, N.Y.) and are presented in mg/dL. Results from saline-treated animals are shown for comparison. Intact oligonucleotide in liver tissue was measured by capillary gel electrophoresis and is presented as micrograms of oligonucleotide per gram of tissue.\nThe oligonucleotide treatments described in this example were duplicated to investigate the extent to which effects of ISIS 147764 persist following cessation of treatment. Mice were treated as described, and sacrificed 1, 2, 4, 6 and 8 weeks following the cessation of oligonucleotide treatment."}, "[2]": {"test_system": "PTEN", "test": "ob/ob mice (Example 50): PTEN levels", "conditions": "high fat high cholesterol diet, 50 mg/kg i.p. twice a week, six weeks", "experimental": "Ob/ob mice receiving a high fat, high cholesterol diet (60% kcal fat supplemented with 0.15% cholesterol) were treated with one of several oligonucleotides to evaluate their effect on apolipoprotein B-related phenotypic endpoints in ob/ob mice. After overnight fasting, mice from each group were dosed intraperitoneally twice a week with 50 mg/kg of ISIS 147483 (SEQ ID NO: 79), or 147764 (SEQ ID NO: 109), or the controls ISIS 116847 (SEQ ID NO: 857), or 141923 (SEQ ID NO: 858), or saline for six weeks. At study termination and forty eight hours after the final injections, animals were sacrificed and evaluated for target mRNA levels in liver, cholesterol and triglyceride levels, liver enzyme levels, serum glucose levels, and PTEN levels."}, "[3]": {"test_system": "apolipoprotein B mRNA", "test": "High fat fed C57BL/6 mice, 6 week timecourse: target mRNA levels in liver", "conditions": "six weeks", "experimental": "Male C57BL/6 mice (n=8) receiving a high fat diet (60% kcal fat) were evaluated over the course of 6 weeks for the effects of treatment with the antisense oligonucleotide, ISIS 147764. Control animals received saline treatment (50 mg/kg). A subset of animals received a daily oral dose (20 mg/kg) atorvastatin calcium (Lipitor®, Pfizer Inc.). All mice, except atorvastatin-treated animals, were dosed intraperitoneally every three days (twice a week), after fasting overnight, with 5, 25, 50 mg/kg ISIS 147764 (SEQ ID No: 109) or saline (50 mg/kg) for six weeks. Serum cholesterol and lipoproteins were analyzed at 0, 2 and 6 week interim timepoints. At study termination, animals were sacrificed 48 hours after the final injections and evaluated for levels of target mRNA levels in liver, cholesterol, lipoprotein, triglyceride, liver enzyme (AST and ALT) and serum glucose levels as well as body, liver, spleen and fat pad weights.\nMale C57BL/6 mice (n=8) receiving a high fat diet (60% kcal fat) were evaluated over the course of 6 weeks for the effects of ISIS 147764 on mRNA expression. Control animals received saline treatment (50 mg/kg). Mice were dosed intraperitoneally every three days (twice a week), after fasting overnight, with 5, 25, 50 mg/kg ISIS 147764 (SEQ ID No: 109) or saline (50 mg/kg) for six weeks. At study termination, animals were sacrificed 48 hours after the final injections and evaluated for levels of target mRNA levels in liver."}, "[4]": {"test_system": "liver gene expression profile; lipid metabolism genes", "test": "Microarray and real-time PCR analysis of liver gene expression in lean versus high-fat fed mice (Example 65)", "conditions": "high fat fed C57Bl/6 mice", "experimental": "(§1) Male C57Bl/6 mice were divided into the following groups, consisting of 5 animals each: (1) mice on a lean diet, injected with saline (lean control); (2) mice on a high fat diet; (3) mice on a high fat diet injected with 50 mg/kg of the control oligonucleotide 141923 (SEQ ID NO: 858); (4) mice on a high fat diet given 20 mg/kg atorvastatin calcium (Lipitor®, Pfizer Inc.); (5) mice on a high fat diet injected with 10, 25 or 50 mg/kg ISIS 147764 (SEQ ID NO: 109). Saline and oligonucleotide treatments were administered intraperitoneally twice weekly for 6 weeks. Atorvastatin was administered daily for 6 weeks. At study termination, liver samples were isolated from each animal and RNA was isolated for Northern blot qualitative assessment, DNA microarray and quantitative real-time PCR. Northern blot assessment and quantitative real-time PCR were performed as described by other examples herein.\nFor DNA microarray analysis, hybridization samples were prepared from 10 μg of total RNA isolated from each mouse liver according to the Affymetrix Expression Analysis Technical Manual (Affymetrix, Inc., Santa Clara, Calif.). […] Signal values for each probe set were calculated using the Affymetrix Microarray Suite v5.0 software (Affymetrix, Inc., Santa Clara, Calif.). […]"}, "[5]": {"test": "High fat fed mice (Example 65): ALT and AST levels", "conditions": "10, 25 and 50 mg/kg", "experimental": "as §1\nMouse apolipoprotein B mRNA and serum cholesterol levels, measured as described herein, were evaluated to confirm antisense inhibition by ISIS 147764 and ISIS 147483. […] The 50 mg/kg dose of ISIS 147483 increased ALT and AST levels."}, "[6]": {"test": "Transgenic mice dosing study (Example 52): serum ALT and AST levels", "conditions": "10 or 25 mg/kg"}}, "note": "In the oligonucleotide strings, read from the 5' end, every base follows the letter of its sugar. An asterisk marks phosphorothioate; unmarked linkages are phosphodiester. Other units and linkages are bracketed, terminal groups are in braces. A string of capitals states the bases alone. e = 2'-O-(2-methoxyethyl) (MOE); [5mC] = 5-methylcytosine; d = 2'-deoxy (DNA)", "data": [{"substance": "147764 (eG*eT*e[5mC]*e[5mC]*e[5mC]*dT*dG*dA*dA*dG*dA*dT*dG*dT*d[5mC]*eA*eA*eT*eG*e[5mC]) [compound 147764]", "values": [{"measurement": "Intact oligonucleotide", "setting": "[1]; high fat fed male C57Bl/6 mice, treatment period 1 week", "result": 121, "unit": "µg/g"}, {"measurement": "Intact oligonucleotide", "setting": "[1]; high fat fed male C57Bl/6 mice, treatment period 2 weeks", "result": 194, "unit": "µg/g"}, {"measurement": "Intact oligonucleotide", "setting": "[1]; high fat fed male C57Bl/6 mice, treatment period 4 weeks", "result": 340, "unit": "µg/g"}, {"measurement": "Intact oligonucleotide", "setting": "[1]; high fat fed male C57Bl/6 mice, treatment period 6 weeks", "result": 586, "unit": "µg/g"}, {"measurement": "Intact oligonucleotide", "setting": "[1]; high fat fed male C57Bl/6 mice, treatment period 2 days", "result": 85, "unit": "µg/g"}, {"measurement": "Intact oligonucleotide", "setting": "[1]; high fat fed mice, 1 week after cessation of dosing", "result": 215, "unit": "µg/g"}, {"measurement": "Intact oligonucleotide", "setting": "[1]; high fat fed mice, 2 weeks after cessation of dosing", "result": 168, "unit": "µg/g"}, {"measurement": "Intact oligonucleotide", "setting": "[1]; high fat fed mice, 4 weeks after cessation of dosing", "result": 124, "unit": "µg/g"}, {"measurement": "Intact oligonucleotide", "setting": "[1]; high fat fed mice, 6 weeks after cessation of dosing", "result": 70, "unit": "µg/g"}, {"measurement": "Intact oligonucleotide", "setting": "[1]; high fat fed mice, 8 weeks after cessation of dosing", "result": 43, "unit": "µg/g"}, {"measurement": "mRNA % control PTEN", "setting": "[2]", "result": 115.3, "unit": "% control"}]}, {"substance": "GTCCCTGAAGATGTCAATGC (2'-MOE gapmer, further chemistry not given here) [ISIS 147764]", "values": [{"measurement": "reduction of target mRNA levels in liver", "setting": "[3]; 5 mg/kg i.p. every three days", "result": 15, "unit": "%"}, {"measurement": "reduction of target mRNA levels in liver", "setting": "[3]; 25 mg/kg i.p. every three days", "result": 75, "unit": "%"}, {"measurement": "reduction of target mRNA levels in liver", "setting": "[3]; 50 mg/kg i.p. every three days", "result": 88, "unit": "%"}, {"measurement": "mRNA expression of lipid metabolism genes (hepatic lipase, fatty acid synthase, ABCD2, FABP2, stearol CoA desaturase-1, HMG CoA reductase), real-time PCR", "setting": "[4]", "result": "reduction in mRNA expression"}, {"measurement": "liver gene expression profile (microarray)", "setting": "[4]; 10, 25 or 50 mg/kg i.p. twice weekly, 6 weeks", "result": "drives the gene expression profile in high fat fed mice to the profile observed in lean mice"}, {"measurement": "ALT or AST levels", "setting": "[5]", "result": "did not significantly elevate"}]}, {"substance": "ISIS 301012: SEQ ID NO: 247, antisense oligonucleotide targeted to human apolipoprotein B (antisense GCCTCAGTCTGCTTCGCACC; chemistry not given here)", "values": [{"measurement": "AST and ALT levels in serum", "setting": "[6]", "result": "increased, yet did not exceed normal levels"}]}]}
